Laboratory results as given in patent US20070238694A1, “Purine compounds and methods of use thereof” (Inotek Pharmaceuticals Corporation, priority 2006, published 2007).
Like-named read-outs stand apart in the source and are kept apart here.

Assays:
[1] = Plasma concentration of Compound 54 after intratracheal administration (HPLC); type: in vivo, Sprague-Dawley rats; conditions: Sprague-Dawley, rat, other: intratracheal (into the trachea via intubation), 2 mg per rat, 0.2 mL of 10 mg/mL solution in saline
Method: (§1) A 10 mg/mL solution of Compound 54 in saline was prepared and 0.2 mL of this solution was administered into the trachea of two Sprague-Dawley rats via intubation. Blood samples were taken at 10 minutes, 30 minutes, 60 minutes and 120 minutes, post-intubation. The plasma concentration of Compound 54 was measured at each of these time points using HPLC and the peak area of the amount of Compound X in the plasma was measured at each of these time points using LC/MS.

[2] = Peak area of Compound X in plasma after intratracheal administration of Compound 54 (LC/MS); type: in vivo, Sprague-Dawley rats
Method: as §1
The peak area of Compound X correlates with the plasma concentration of this compound.

CNC(=O)[C@H]1O[C@@H](n2cnc3c(NC)nc(C#N)nc32)[C@@H]2OP(=O)(O)O[C@@H]21 [Compound 54]
concentration at 10 min ([1]; Rat 1, 10 min post-intubation, read-out: Plasma Concentration Rat 1): 830 ng/mL | concentration at 30 min ([1]; Rat 1, 30 min post-intubation, read-out: Plasma Concentration Rat 1): 232 ng/mL | concentration at 60 min ([1]; Rat 1, 60 min post-intubation, read-out: Plasma Concentration Rat 1): 69.3 ng/mL | concentration at 120 min ([1]; Rat 1, 120 min post-intubation, read-out: Plasma Concentration Rat 1): 9.7 ng/mL | concentration at 10 min ([1]; mean of two rats, 10 min post-intubation, read-out: Mean Plasma Concentration): 728 ng/mL | concentration at 30 min ([1]; mean of two rats, 30 min post-intubation, read-out: Mean Plasma Concentration): 217 ng/mL | concentration at 60 min ([1]; mean of two rats, 60 min post-intubation, read-out: Mean Plasma Concentration): 47.6 ng/mL | concentration at 120 min ([1]; mean of two rats, 120 min post-intubation, read-out: Mean Plasma Concentration): 9.6 ng/mL | concentration at 10 min ([1]; second rat column (head printed Rat 1), 10 min post-intubation, read-out: Plasma Concentration Rat 1): 627 ng/mL | concentration at 30 min ([1]; second rat column (head printed Rat 1), 30 min post-intubation, read-out: Plasma Concentration Rat 1): 202 ng/mL | concentration at 60 min ([1]; second rat column (head printed Rat 1), 60 min post-intubation, read-out: Plasma Concentration Rat 1): 26 ng/mL | concentration at 120 min ([1]; second rat column (head printed Rat 1), 120 min post-intubation, read-out: Plasma Concentration Rat 1): 9.5 ng/mL

CNC(=O)[C@H]1O[C@@H](n2cnc3c(NC)nc(C#N)nc32)[C@H](O)[C@@H]1O [Compound X]
Mean Peak Area ([2]; 120 min after intratracheal administration of Compound 54, Rat 2 value not available): 0.4 | Peak Area Rat 1 ([2]; Rat 1, 10 min after intratracheal administration of Compound 54): 140 | Peak Area Rat 1 ([2]; Rat 1, 30 min after intratracheal administration of Compound 54): 9.6 | Peak Area Rat 1 ([2]; Rat 1, 60 min after intratracheal administration of Compound 54): 4.4 | Peak Area Rat 1 ([2]; Rat 1, 120 min after intratracheal administration of Compound 54): 0.4 | Peak Area Rat 2 ([2]; Rat 2, 10 min after intratracheal administration of Compound 54): 64 | Peak Area Rat 2 ([2]; Rat 2, 30 min after intratracheal administration of Compound 54): 12 | Peak Area Rat 2 ([2]; Rat 2, 60 min after intratracheal administration of Compound 54): 1.8 | Mean Peak Area ([2]; mean of rats, 10 min after intratracheal administration of Compound 54): 102 | Mean Peak Area ([2]; mean of rats, 30 min after intratracheal administration of Compound 54): 10.8 | Mean Peak Area ([2]; mean of rats, 60 min after intratracheal administration of Compound 54): 3.1
